The data set is described as follows: Solubility of ibuprofen salts in saturated solutions at room temperature (HPLC, UV detection). An excerpt:
Zur Bestimmung der Löslichkeit der Ibuprofen-Salze werden bei Raumtemperatur gesättigte Lösungen hergestellt. Ein aliguoter Teil dieser Lösungen wird mit einem mit der Lösung mischbaren Lösungsmittel verdünnt und der Gehalt an Ibuprofen mittels HPLC über eine Reversed-Phase-Säule und UV-Detektion bestimmt.

Setting [1] is: 1,2-Propandiol/Glycerin/Wasser (2/4/3;v/v/v).
Setting [2] is: 1,2-Propandiol/Polyethylenglykol 400/Wasser (5/3/6;v/v/v).
Where [3] appears, read: Cabrylic/Capric Triglyceride (Miglyol 810).
Where [4] appears, read: Caprylic/Capric Triglyceride (Miglyol 812).
[5] abbreviates: Ethanol/1,2-Propandiol/Wasser (1/4/4;v/v/v).
The mark [6] stands for this setting: Polyoxyethylen-(7)-glycerin-kokosnußöfettsäure-ester.
Where [7] appears, read: Polyoxyethylierte Olein-Glyceride (Labrafil M 1944 CS).

“Aluminiumdiibuprofen (1 : 2) [Ibuprofen-Al (2 : 1)]”: the “Löslichkeit von Ibuprofen-Salzen bei Raumtemperatur” value (1,2-Propandiol) is 0,8 mg Ibuprofen/ml; the “Löslichkeit von Ibuprofen-Salzen bei Raumtemperatur” value under setting [1] is < 0,1 mg Ibuprofen/ml; the “Löslichkeit von Ibuprofen-Salzen bei Raumtemperatur” value under setting [2] is listed as < 0,1 mg Ibuprofen/ml; the “Löslichkeit von Ibuprofen-Salzen bei Raumtemperatur” value under setting [3] is on record as 0,5 mg Ibuprofen/ml; the “Löslichkeit von Ibuprofen-Salzen bei Raumtemperatur” value under setting [4] is recorded as 0,3 mg Ibuprofen/ml; the “Löslichkeit von Ibuprofen-Salzen bei Raumtemperatur” value (Ethanol) was 2 mg Ibuprofen/ml. Further, the “Löslichkeit von Ibuprofen-Salzen bei Raumtemperatur” value under setting [5] is on record as < 0,1 mg Ibuprofen/ml; the “Löslichkeit von Ibuprofen-Salzen bei Raumtemperatur” value (Glycerin) is listed as < 0,1 mg Ibuprofen/ml; the “Löslichkeit von Ibuprofen-Salzen bei Raumtemperatur” value (Glycerinmonoricinoleat) is reported as 4,5 mg Ibuprofen/ml; the “Löslichkeit von Ibuprofen-Salzen bei Raumtemperatur” value (Isopropylmyristat) came out at 1 mg Ibuprofen/ml; the “Löslichkeit von Ibuprofen-Salzen bei Raumtemperatur” value (Paraffinum supl.) is < 0,1 mg Ibuprofen/ml; the “Löslichkeit von Ibuprofen-Salzen bei Raumtemperatur” value (Polyethylenglykol 400) was found to be 2 mg Ibuprofen/ml. The “Löslichkeit von Ibuprofen-Salzen bei Raumtemperatur” value is on record as 6 mg Ibuprofen/ml under setting [6], 4 mg Ibuprofen/ml under setting [7] and < 0,1 mg Ibuprofen/ml (Wasser).
For Ibuprofen-Magnesiumsalz [Ibuprofen-Mg], the “Löslichkeit von Ibuprofen-Salzen bei Raumtemperatur” value (1,2-Propandiol) came out at 160 mg Ibuprofen/ml; the “Löslichkeit von Ibuprofen-Salzen bei Raumtemperatur” value under setting [1] was found to be 250 mg Ibuprofen/ml; the “Löslichkeit von Ibuprofen-Salzen bei Raumtemperatur” value under setting [2] was found to be 125 mg Ibuprofen/ml; the “Löslichkeit von Ibuprofen-Salzen bei Raumtemperatur” value under setting [3] is listed as 35 mg Ibuprofen/ml; the “Löslichkeit von Ibuprofen-Salzen bei Raumtemperatur” value under setting [4] was found to be 17 mg Ibuprofen/ml; the “Löslichkeit von Ibuprofen-Salzen bei Raumtemperatur” value (Ethanol) amounted to 500 mg Ibuprofen/ml. For the same substance, the “Löslichkeit von Ibuprofen-Salzen bei Raumtemperatur” value runs as follows: under setting [5], 330 mg Ibuprofen/ml; (Glycerin) 8 mg Ibuprofen/ml; (Glycerinmonoricinoleat) 450 mg Ibuprofen/ml; (Isopropylmyristat) 260 mg Ibuprofen/ml; (Paraffinum supl.) 0,4 mg Ibuprofen/ml; (Polyethylenglykol 400) 40 mg Ibuprofen/ml. Moreover, the “Löslichkeit von Ibuprofen-Salzen bei Raumtemperatur” value stood at 480 mg Ibuprofen/ml under setting [6], 380 mg Ibuprofen/ml under setting [7] and 7 mg Ibuprofen/ml (Wasser).

These data come from patent EP0429856A2, “Pharmaceutical preparation containing a metal salt of ibuprofen and process for making same” (Dolorgiet GmbH & Co. KG, priority 1989, dated 1991).
